Experimental data published in article PMC3365113, “Exploiting Ligand-Protein Conjugates to Monitor Ligand-Receptor Interactions” (PLoS ONE, 2012).

Legend:
SNAP-ORP7 = biological target: T1, SNAP-ORP7 (Homo sapiens, UniProt Q9BZF2); type: binding; details: HEK293 cell extract, free erlotinib 10 µM
T1 construct: strep-tag (N); made in house; host or cells: HEK293 (suspension HEK-293E), transient transfection, Strep-tactin purified
T1 sequence (Q9BZF2 1-842): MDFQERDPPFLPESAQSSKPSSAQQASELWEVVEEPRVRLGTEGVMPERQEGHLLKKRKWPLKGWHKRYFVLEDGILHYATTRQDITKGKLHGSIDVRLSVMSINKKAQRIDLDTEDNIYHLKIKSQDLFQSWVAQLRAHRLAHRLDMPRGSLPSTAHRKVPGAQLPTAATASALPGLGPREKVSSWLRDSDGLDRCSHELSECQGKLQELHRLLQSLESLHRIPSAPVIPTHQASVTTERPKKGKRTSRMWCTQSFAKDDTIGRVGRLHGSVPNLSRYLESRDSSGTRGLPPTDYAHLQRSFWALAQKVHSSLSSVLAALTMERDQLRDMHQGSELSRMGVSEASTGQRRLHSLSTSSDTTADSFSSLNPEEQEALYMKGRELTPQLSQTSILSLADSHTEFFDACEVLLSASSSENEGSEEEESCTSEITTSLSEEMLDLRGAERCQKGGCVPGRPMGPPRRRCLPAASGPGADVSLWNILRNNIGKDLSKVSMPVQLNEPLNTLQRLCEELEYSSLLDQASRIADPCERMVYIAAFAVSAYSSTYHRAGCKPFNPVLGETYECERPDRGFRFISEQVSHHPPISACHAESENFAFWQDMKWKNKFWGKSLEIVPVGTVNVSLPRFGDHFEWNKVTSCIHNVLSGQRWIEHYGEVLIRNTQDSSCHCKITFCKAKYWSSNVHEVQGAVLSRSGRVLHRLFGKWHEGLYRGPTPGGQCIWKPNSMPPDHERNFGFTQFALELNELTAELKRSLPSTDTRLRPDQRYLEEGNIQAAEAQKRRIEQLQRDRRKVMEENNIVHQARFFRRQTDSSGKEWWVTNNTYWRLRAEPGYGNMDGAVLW

PTK2B = biological target: T2, PTK2B (Homo sapiens, UniProt Q14289); assay: Cell imaging assay in fixed U2OS cells; type: binding; details: ligand as SNAP-EGFP conjugate
T2 construct: expressed in transfected cells; host or cells: U2OS
Description: (§1) Finally, we developed a binding assay applicable to fixed cells. Such an assay is desirable if the protein to be analyzed is insoluble or unstable in extracts. In this assay (Figure 1B, 7A), the epitope-tagged receptor protein is over-expressed in mammalian cells by transient transfection. The cells are fixed with paraformaldehyde and permeabilized with nonionic detergent. The expression of the receptor protein is then confirmed by visualization with the anti-epitope tag antibody conjugated with a fluorophore using immunofluorescence microscopy. In parallel, the ligand-protein interaction is examined with the aid of BG-derivatized ligand conjugated to EGFP via SNAP-tag. […] We evaluated the generality of this method using other previously validated drug-protein interactions (PDE6D-atorvastatin, PTK2B-purvalanol B, and FYN-dasatinib). Binding of all three pairs was detected with this method (Figure S3).
(§2) Supplementary file pone.0037598.s003.tif: Figure S3 Cell imaging assay using validated drug-receptor pairs. (A) U2OS cells were transfected with a plasmid which express V5 tagged PDE6D. One day after transfection, cells were fixed with 4% paraformaldehyde, and permeabilized with 0.1% Tritin X-100. After washing, the cells were incubated with anti-V5-antibody conjugated with FITC or 100 nM atorvastatin-SNAP-EGFP. Fluorescence images (GFP filter) were taken within 30 min after washing of the cells. (B) (C) Cell imaging assay using pairs of purvalanol B-PTK2B and dasatinib-FYN, respectively. (TIF) Click here for additional data file.

SNAP-eDHFR L54I = SNAP-eDHFR L54I (Escherichia coli, UniProt P0ABQ4, L54I); assay: biochemical; type: binding
SNAP-eDHFR WT [1] = biological target: T3, SNAP-eDHFR WT (Escherichia coli, UniProt P0ABQ4); assay: biochemical
SNAP-eDHFR WT [2] = biological target: T3, SNAP-eDHFR WT; assay: biochemical; type: binding
SNAP-eDHFR L54G = SNAP-eDHFR L54G (Escherichia coli, UniProt P0ABQ4, L54G); assay: biochemical; type: binding
[3] = test system: eDHFR (every eDHFR mutant); assay: SNAP-based TR-FRET competition assay using MTX and MTX-BG as competitors; type: binding, Escherichia coli; details: MTX-BG vs MTX, 100 µM NADPH
PDE6D = biological target: T4, PDE6D (Homo sapiens, UniProt O43924); assay: Cell imaging assay in fixed U2OS cells; type: binding; details: 100 nM atorvastatin-SNAP-EGFP
T4 construct: expressed in transfected cells; host or cells: U2OS
Description: as §1, §2

FYN = biological target: T5, FYN (Homo sapiens, UniProt P06241); assay: Cell imaging assay in fixed U2OS cells; type: binding; details: ligand as SNAP-EGFP conjugate
T5 construct: expressed in transfected cells; host or cells: U2OS
Description: as §1, §2

Compound: C#Cc1cccc(Nc2ncnc3cc(OCCOC)c(OCCOC)cc23)c1 [erlotinib]
- Effect of free ligand on hetero-crosslinking product band (SNAP-ORP7): no longer detected

Compound: CC(C)[C@H](CO)Nc1nc(Nc2ccc(C(=O)O)c(Cl)c2)c2ncn(C(C)C)c2n1 [purvalanol B]
- Binding detected by cell imaging, PTK2B (PTK2B): detected

Compound: CC1(C)N=C(N)N=C(N)N1OCCCOc1cc(Cl)c(Cl)cc1Cl [WR99210]
- Kd (SNAP-eDHFR L54I): 2.6 ± 0.21 µM
- IC50 (SNAP-eDHFR WT [1]): 54 ± 16 µM
- Kd (SNAP-eDHFR WT [2]): 12 ± 0.95 µM
- Kd (SNAP-eDHFR L54G): 15 ± 0.79 µM

Compound: methotrexate-BG [MTX-BG]
- Change of Kd values by derivatization of MTX with BG [3]: about 10 fold

Compound: COc1cc(NCc2ccc3nc(N)nc(N)c3c2C)cc(OC)c1OC [Trimetrexate, trimetrexate]
- Kd (SNAP-eDHFR L54I): 0.0001 ± 1e-05 µM
- IC50 (SNAP-eDHFR WT [1]): 0.00027 ± 3e-05 µM
- Kd (SNAP-eDHFR WT [2]): 0.00015 ± 1e-05 µM
- Kd (SNAP-eDHFR L54G): 0.00064 ± 4e-05 µM

Compound: CC(C)c1c(C(=O)Nc2ccccc2)c(-c2ccccc2)c(-c2ccc(F)cc2)n1CC[C@@H](O)C[C@@H](O)CC(=O)O [atorvastatin]
- Binding detected by cell imaging, PDE6D (PDE6D): detected

Compound: Cc1nc(Nc2ncc(C(=O)Nc3c(C)cccc3Cl)s2)cc(N2CCN(CCO)CC2)n1 [dasatinib]
- Binding detected by cell imaging, FYN (FYN): detected
